Assay results as given in ChEMBL document CHEMBL1147224, “Resveratrol and two monomethylated stilbenes from Israeli Rumex bucephalophorus and their antioxidant potential” (J Nat Prod, 2003).

Assay: ABTS radical scavenging activity assessed as trolox equivalent antioxidant capacity after 10 mins; call rule not given here
Type: physicochemical

Q: With COc1ccc(/C=C/c2cc(O)cc(O)c2)cc1 [RESVERATROL 4'-METHYL ETHER] as the compound, how does the Activity read?
A: Active

Q: With COc1cc(O)cc(/C=C/c2ccc(O)cc2)c1 as the compound, how does the Activity read?
A: Active

Q: For Oc1ccc(/C=C/c2cc(O)cc(O)c2)cc1 [RESVERATROL], which Activity is on record?
A: 2.74
